Results: PubChem BioAssay AID1963869 (Molecular Pharmacology Branch, DTP, NCI, 2024)

Test system: KRAS patient-derived spheroids with HUVEC/MSC, viability
Assay: Anticancer human tumor 323965-272-R-J2-PDC patient-derived pancreatic carcinoma cell line growth inhibition [KRAS2]
Conditions: for IC50: curve of first compound; for viability, T/C: stronger effect = lower value
Summary of the method: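 KRAS-mutant tumor cells were grown as spheroids with HUVEC endothelial cells and human MSCs as stroma. Targeted agents were tested alone and with KRAS pathway inhibitors. Doses started at or near clinical Cmax, or 10 microM, descending half-log.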

[1] = second compound 0.1 µM, first compound 0.0316 µM
[2] = second compound 0.1 µM, first compound 0.1 µM
[3] = second compound 0.316 µM, first compound 0.0316 µM
[4] = second compound 0.316 µM, first compound 0.1 µM
[5] = second compound 1 µM, first compound 0.0316 µM
[6] = second compound 1 µM, first compound 0.1 µM
[7] = second compound 3.16 µM, first compound 0.0316 µM
[8] = second compound 3.16 µM, first compound 0.1 µM
[9] = second compound 10 µM, first compound 0.0316 µM
[10] = second compound 10 µM, first compound 0.1 µM
[11] = second compound 0.1 µM, first compound 0.316 µM
[12] = second compound 0.1 µM, first compound 1 µM
[13] = second compound 0.1 µM, first compound 3.16 µM
[14] = second compound 0.1 µM, first compound 10 µM
[15] = second compound 0.316 µM, first compound 0.316 µM
[16] = second compound 0.316 µM, first compound 1 µM
[17] = second compound 0.316 µM, first compound 3.16 µM
[18] = second compound 0.316 µM, first compound 10 µM
[19] = second compound 1 µM, first compound 0.316 µM
[20] = second compound 1 µM, first compound 1 µM
[21] = second compound 1 µM, first compound 3.16 µM
[22] = second compound 1 µM, first compound 10 µM
[23] = second compound 3.16 µM, first compound 0.316 µM
[24] = second compound 3.16 µM, first compound 1 µM
[25] = second compound 3.16 µM, first compound 3.16 µM
[26] = second compound 3.16 µM, first compound 10 µM
[27] = second compound 10 µM, first compound 0.316 µM
[28] = second compound 10 µM, first compound 1 µM
[29] = second compound 10 µM, first compound 3.16 µM
[30] = second compound 10 µM, first compound 10 µM
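Note: spheroids exposed to agents for 7 days.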
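Throughout, for viability, T/C: 100% = DMSO vehicle control viability.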

Row | SMILES | IC50 (second compound 0.1 µM) | IC50 (second compound 0.316 µM) | IC50 (second compound 1 µM) | IC50 (second compound 3.16 µM) | IC50 (second compound 10 µM) | viability, T/C [1] | viability, T/C [2] | viability, T/C [3] | viability, T/C [4] | viability, T/C [5] | viability, T/C [6] | viability, T/C [7] | viability, T/C [8] | viability, T/C [9] | viability, T/C [10] | viability, T/C [11] | viability, T/C [12] | viability, T/C [13] | viability, T/C [14] | viability, T/C [15] | other results
1 | CN(C)C/C=C/C(=O)Nc1cc2c(Nc3ccc(F)c(Cl)c3)ncnc2cc1O[C@H]1CCOC1 + CNCc1ccccc1-c1csc(C(C)Nc2nc(C)nc3cc(OC)c(OC)cc23)c1 | > 0.1 µM | > 0.1 µM | > 0.1 µM | > 0.1 µM | < 0.000316 µM | 59.6% | 62.7% | 59.2% | 57.8% | 63.3% | 65.1% | 47.2% | 71.9% | 0.2% | 0.78% |  |  |  |  |  | viability, T/C (second compound 0.1 µM, first compound 0.000316 µM): 91.6%; viability, T/C (second compound 0.1 µM, first compound 0.001 µM): 80.5%; viability, T/C (second compound 0.1 µM, first compound 0.00316 µM): 94.3%; viability, T/C (second compound 0.1 µM, first compound 0.01 µM): 70.6%; viability, T/C (second compound 0.316 µM, first compound 0.000316 µM): 83.8%; viability, T/C (second compound 0.316 µM, first compound 0.001 µM): 82.1%; viability, T/C (second compound 0.316 µM, first compound 0.00316 µM): 74.3%; viability, T/C (second compound 0.316 µM, first compound 0.01 µM): 64.2%; viability, T/C (second compound 1 µM, first compound 0.000316 µM): 82.3%; viability, T/C (second compound 1 µM, first compound 0.001 µM): 81.4%; viability, T/C (second compound 1 µM, first compound 0.00316 µM): 75.2%; viability, T/C (second compound 1 µM, first compound 0.01 µM): 60.6%; viability, T/C (second compound 3.16 µM, first compound 0.000316 µM): 73.8%; viability, T/C (second compound 3.16 µM, first compound 0.001 µM): 63.7%; viability, T/C (second compound 3.16 µM, first compound 0.00316 µM): 79.1%; viability, T/C (second compound 3.16 µM, first compound 0.01 µM): 79.6%; viability, T/C (second compound 10 µM, first compound 0.000316 µM): 0.21%; viability, T/C (second compound 10 µM, first compound 0.001 µM): 0.21%; viability, T/C (second compound 10 µM, first compound 0.00316 µM): 1.04%; viability, T/C (second compound 10 µM, first compound 0.01 µM): 0.21%
2 | COC(=O)c1ccc2c(C(=Nc3ccc(N(C)C(=O)CN4CCN(C)CC4)cc3)c3ccccc3)c(O)[nH]c2c1 + CNCc1ccccc1-c1csc(C(C)Nc2nc(C)nc3cc(OC)c(OC)cc23)c1 | > 10 µM | > 10 µM | > 10 µM | > 10 µM | < 0.0316 µM | 94.9% | 90% | 90.6% | 88.4% | 90.3% | 90.8% | 102% | 105% | 0.33% | 1.26% | 102% | 94.2% | 95.7% | 89.2% | 97% | viability, T/C [16]: 98.2%; viability, T/C [17]: 94.3%; viability, T/C [18]: 86.5%; viability, T/C [19]: 85.7%; viability, T/C [20]: 79.6%; viability, T/C [21]: 93.7%; viability, T/C [22]: 90.4%; viability, T/C [23]: 99.6%; viability, T/C [24]: 103%; viability, T/C [25]: 90%; viability, T/C [26]: 88.6%; viability, T/C [27]: 0.33%; viability, T/C [28]: 0.3%; viability, T/C [29]: 0.44%; viability, T/C [30]: 0.35%
3 | O=C(c1cc(Cc2n[nH]c(=O)c3ccccc23)ccc1F)N1CCN(C(=O)C2CC2)CC1 + CNCc1ccccc1-c1csc(C(C)Nc2nc(C)nc3cc(OC)c(OC)cc23)c1 | > 10 µM | > 10 µM | > 10 µM | 8.84 µM | < 0.0316 µM | 98.7% | 93.1% | 94.9% | 91% | 92% | 93.5% | 102% | 102% | 6.59% | 0.4% | 97.8% | 93.6% | 89% | 57.1% | 98.4% | viability, T/C [16]: 89.7%; viability, T/C [17]: 86.2%; viability, T/C [18]: 51.5%; viability, T/C [19]: 84.5%; viability, T/C [20]: 86.3%; viability, T/C [21]: 83.3%; viability, T/C [22]: 52.9%; viability, T/C [23]: 96.4%; viability, T/C [24]: 98.8%; viability, T/C [25]: 92.5%; viability, T/C [26]: 44.8%; viability, T/C [27]: 2.23%; viability, T/C [28]: 0.39%; viability, T/C [29]: 0.34%; viability, T/C [30]: 0.82%
